Assay [1] concerns multi-resistant Staphylococcus aureus 575 (MRSA-575). Put plainly: Paper diffusion method drug sensitivity test, MRSA-575. The conditions noted are these: for Zone of inhibition: MRSA-575, 30 μg/tablet paper disc 6.35 mm, LB plate, 37° C., 24 h, ≥17 mm sensitive, 15-16 mm intermediary, ≤14 mm drug resistance. Type of assay: cell-based. The method, then: (§1) The antimicrobial efficacy was determined by a paper diffusion method drug sensitivity test.
(§2) E Experimental strains: multi-resistant Staphylococcus aureus 206 (MRSA-206), multi-resistant Staphylococcus aureus 575 (MRSA-575), multi-resistant Staphylococcus aureus 596 (MRSA-596). The experimental strain was identified by Huashan Hospital Affiliated to Fudan University (Institute of Antibiotic of Fudan University).
(§3) Drug sensitive paper: The drug sensitive paper was a special drug sensitive paper with a diameter of 6.35 mm and a water absorption of 0.02 mL. The control drug was vancomycin (30 μg/tablet); the test drugs were pleuromulin (30 μg/tablet), salicylic acid (30 μg/tablet) and pleuromulin salicylic acid ester (30 μg/tablet).
(§4) Reagents: LB agar medium, LA broth medium, 0.5% DMSO solution.
(§5) T The experimental strains were inoculated in non-selective medium and placed in air at 37° C. for 24 h. A single colony that grows well and inoculate it into broth medium was incubate at 35° C.±2° C. for 6 hours, and LA broth medium was used to calibrate the concentration of the bacterial solution to 0.5 Mie turbidimetric tube (1.5×10^8 CFU/mL). A bacterial suspension was obtained.
(§6) LB dry powder was weighed, sterilized at 103.4 Kpa, 121.3° C. high-pressure steam for 15 min, and then placed it in a 40° C.-50° C. water bath. A sterile empty plate (inner diameter 9 cm) was placed on the surface of the ultra-clean table water table, and […] to the plate. The thickness of each plate was 3 mm to 4 mm. After the plate was cooled at room temperature, it was stored in the refrigerator at 2° C.-8° C. A sterile cotton swab was used to dip the bacterial solution and ti evenly coat the surface of the LB plate 3 times. After inoculation of the bacterial suspension, the LB plate was dried at room temperature for 3 min to 5 min. Sterile forceps were used to closely attach the antibacterial drug paper to the dish. The dish was put upside down and placed in a 37° C. incubator for 24 h. The results were observed by measuring the diameter. Taking 0.5% DMSO solution as a negative control, the antibacterial activity is expressed by the diameter of the inhibition zone. The inhibition zone≥17 mm, sensitive; the inhibition zone of 15 mm-16 mm, intermediary; the inhibition zone≤14 mm, drug resistance.

A further assay has as its system MRSA-171. The assay is described as follows: Paper diffusion method drug sensitivity test, MRSA-171. In kind it is cell-based, Staphylococcus aureus. The conditions noted are these: for Zone of inhibition: MRSA-171, 30 μg/tablet paper disc 6.35 mm, LB plate, 37° C., 24 h, ≥17 mm sensitive, 15-16 mm intermediary, ≤14 mm drug resistance.
In assay [2] the test system is multi-resistant Staphylococcus aureus 596 (MRSA-596). The assay is described as follows: Paper diffusion method drug sensitivity test, MRSA-596. As to conditions: for Zone of inhibition: MRSA-596, 30 μg/tablet paper disc 6.35 mm, LB plate, 37° C., 24 h, ≥17 mm sensitive, 15-16 mm intermediary, ≤14 mm drug resistance. Type of assay: cell-based. As to the method:
as §1, §2, §3, §4, §5, §6

Another assay deals with drug-resistant bacteria. Put plainly: Paper diffusion method drug sensitivity test, overall statement on drug-resistant bacteria. Type of assay: cell-based, Staphylococcus aureus. The conditions noted are these: drug-resistant bacteria in general (strains of Table 1); 30 μg/tablet. As to the method:
as §1, §2, §3, §4, §5
as §6, with “Taking 0.5% DMSO solution as a negative control, the antibacterial activity is expressed by the diameter of the inhibition zone. The inhibition zone≥17 mm, sensitive; the inhibition zone of 15 mm-16 mm, intermediary; the inhibition zone≤14 mm, drug resistance.” left out

For `CN[C@H](CC(C)C)C(=O)N[C@H]1C(=O)N[C@@H](CC(N)=O)C(=O)N[C@H]2C(=O)N[C@H]3C(=O)N[C@H](C(=O)N[C@H](C(=O)O)c4cc(O)cc(O)c4-c4cc3ccc4O)[C@H](O)c3ccc(c(Cl)c3)Oc3cc2cc(c3O[C@@H]2O[C@H](CO)[C@@H](O)[C@H](O)[C@H]2O[C@H]2C[C@](C)(N)[C@H](O)[C@H](C)O2)Oc2ccc(cc2Cl)[C@H]1O` [Vancomycin, vancomycin], the Zone of inhibition was 17 mm in assay [1], 15 mm with MRSA-171 and 23 mm in assay [2].
Turning to `C=C[C@]1(C)C[C@@H](OC(=O)COC(=O)c2ccccc2O)[C@]2(C)[C@H](C)CC[C@]3(CCC(=O)[C@H]32)[C@@H](C)[C@@H]1O`, the “inhibitory effect on drug-resistant bacteria (in words)” value with drug-resistant bacteria was “excellent antibacterial activity and anti-drug-resistant bacteria activity”. Besides, the Zone of inhibition worked out at 10 mm in assay [1], 16 mm in the assay on MRSA-171 and 26 mm in assay [2]. Besides, the “inhibitory effect (in words)” value is “strong inhibitory effects” in assay [1] (multi-drug resistant Staphylococcus aureus 575, 30 μg/tablet); “strong inhibitory effects” with MRSA-171 (multi-drug resistant Staphylococcus aureus 171, 30 μg/tablet); “strong inhibitory effects” in assay [2] (multi-drug resistant Staphylococcus aureus 596, 30 μg/tablet).
With `O=C(O)c1ccccc1O` [Salicylic acid], the “inhibitory effect on drug-resistant bacteria (in words)” value in the assay on drug-resistant bacteria was “no inhibitory effect”. Also, the Zone of inhibition (in assay [1]; with MRSA-171; in assay [2]) was 0 mm each time.
Regarding `C=C[C@]1(C)C[C@@H](OC(=O)CO)[C@]2(C)[C@H](C)CC[C@]3(CCC(=O)[C@H]32)[C@@H](C)[C@@H]1O` [Pleuromulin], the “inhibitory effect on drug-resistant bacteria (in words)” value in the assay on drug-resistant bacteria is given as “no inhibitory effect”. For the same compound, the Zone of inhibition (in assay [1]; in the assay on MRSA-171; in assay [2]) was 0 mm in each case.

These data come from patent publication US11401233B1, “Pleuromutilin salicylic acid ester with antibacterial activity and a method of preparing the same” (SHAANXI UNIVERSITY OF SCIENCE AND TECHNOLOGY, priority 2021, dated 2022).
